Source: US20250019357A1, “[…] MORPHIC FORMS AND MIXTURES FOR THE TREATMENT OF MENTAL DISORDERS OR MENTAL ENHANCEMENT” (TACTOGEN INC, priority 2021, published 2025)
Where a name gives a salt, the structure may show the parent alone.

How the values were obtained:
5-HT1BR = 5-HT1BR (Homo sapiens (Human), UniProt P28222); format: cell-based; conditions: 5-HT1BR agonist curve
SERT [1] = target: T1, SERT (Rattus norvegicus (Rat), UniProt P31652); test: In vitro rat synaptosome serotonin uptake inhibition assay (Examples 9, 58); format: biochemical; conditions: rat synaptosomes
Excerpt: (§1) FIG. 7A is a graph showing results from an in vitro rat synaptosome serotonin uptake inhibition assay. […] Details and procedural information for this assay are described in Example 9. The x-axis is the log [dose] concentration measured in molar and the y-axis is the [^3H]-labeled 5-HT reuptake measured in percent.
as §1, with “176” for “7A”, “58.” for “9.”, “x-axis” for “x-axis is”, “concentration is” for “concentration”, “Molar units” for “molar”, “percent of maximum produced by the comparison releaser.” for “percent.”

SERT [2] = target: T1, SERT; test: In vitro rat synaptosome serotonin release (efflux) assay (Examples 9, 58); format: biochemical; conditions: rat synaptosomes
Excerpt: as §1, with “7B” for “7A”, “release” for “uptake inhibition”, “release” for “reuptake”
as §1, with “177” for “7A”, “release” for “uptake inhibition”, “58.” for “9.”, “x-axis” for “x-axis is”, “release” for “reuptake”

[3] = target: human 5-HT transporter (hSERT) (Homo sapiens (Human), UniProt P31645); test: Human serotonin transporter  assay ([3H]imipramine radioligand, CHO cells); format: binding
Procedure: EXAMPLE 8: Human Serotonin Transporter (SERT, SLC6A4) Functional Antagonist Uptake Assay
Benzofuran derivatives were evaluated for inhibiting the human 5-HT transporter (hSERT) as expressed in CHO cells using an antagonist radioligand assay (Tatsumi, M. et al. (1999), Eur. J. Pharmacol., 368: 277-283). […] Test compounds were assayed in three trials at […], and 0.94868 μM.
EXAMPLE 57: Human Serotonin Transporter (SERT, SLC6A4) Functional Antagonist Uptake Assay

SMILES	Hill Coef. (5-HT1BR)	[3H]-labeled 5-HT reuptake (serotonin uptake inhibition) (SERT [1])	[3H]-labeled 5-HT release (SERT [2])	IC50 [3]	Ki [3]
CCC(NC)C(=O)c1ccc2occc2c1 (racemic) [rac-BK-5-MBPB, 1-(benzofuran-5-yl)-2-(methylamino) butan-1-one]	1.01	–	–	–	–
CNC(C)C(=O)c1ccc2occc2c1 (single isomer, unassigned; (-)) [(−)-Bk-5-MAPB, 1-(benzofuran-5-yl)-2-(methylamino) propan-1-one]	1.5	rapidly increases extracellular serotonin by inhibiting reuptake	rapidly increases extracellular serotonin by stimulating release	–	–
CNC(C)C(=O)c1ccc2occc2c1 (single isomer, unassigned; (+)) [(+)-Bk-5-MAPB, 1-(benzofuran-5-yl)-2-(methylamino) propan-1-one]	1.05	rapidly increases extracellular serotonin by inhibiting reuptake	rapidly increases extracellular serotonin by stimulating release	–	–
CNC(C)C(=O)c1ccc2ccoc2c1 (single isomer, unassigned; (+)) [(+)-Bk-6-MAPB, 1-(benzofuran-6-yl)-2-(methylamino) propan-1-one]	–	rapidly increases extracellular serotonin by inhibiting reuptake	rapidly increases extracellular serotonin by stimulating release	110 µM	51 µM
CNC(C)C(=O)c1ccc2ccoc2c1 (racemic) [rac-BK-6-MAPB, 1-(benzofuran-6-yl)-2-(methylamino)propan-1-one hydrochloride]	0.99	–	–	–	–
CCC(Cc1ccc2occc2c1)NC (stereo not shown) [RS-5-MBPB, 1-(benzofuran-5-yl)-N-methylbutan-2-amine]	–	rapidly increases extracellular serotonin by inhibiting reuptake	rapidly increases extracellular serotonin by stimulating release	–	–
CCC(NC)C(=O)c1ccc2occc2c1 (single isomer, unassigned; (-)) [(−)-BK-5-MBPB, 1-(benzofuran-5-yl)-2-(methylamino) butan-1-one]	1.6241	–	–	–	–
CNC(C)C(=O)c1ccc2ccoc2c1 (single isomer, unassigned; (-)) [(−)-Bk-6-MAPB, 1-(benzofuran-6-yl)-2-(methylamino) propan-1-one]	0.8339	rapidly increases extracellular serotonin by inhibiting reuptake	rapidly increases extracellular serotonin by stimulating release	–	–
CNC(C)C(=O)c1ccc2occc2c1 (racemic) [rac-BK-5-MAPB, 1-(benzofuran-5-yl)-2-(methylamino)propan-1-one hydrochloride]	0.91	–	–	–	–
